Results published in EP1060190B1, “NEW SALT FORMS OF (2E)- 5-AMINO-5- METHYLHEX-2- ENOIC ACID N-METHYL-N-((1R)-1-(N- METHYL-N-((1R)-1-(METHYLCARBAMOYL)-2- PHENYLETHYL)CARBAMOYL)-2- (2-NAPHTYL)ETHYL)AMIDE” (NOVO NORDISK A/S, priority 1998, dated 1999).
Structures can show the parent of a compound that is named as a salt.

Assay: Exposure of the anhydrous salt form to high humidity (solid form stability)
Assay type: physicochemical
Details: e.g. 10 weeks at 98% RH

Exposure of the anhydrous form to high humidity: produced the hydrous form
SMILES: CNC(=O)[C@@H](Cc1ccccc1)N(C)C(=O)[C@@H](Cc1ccc2ccccc2c1)N(C)C(=O)/C=C/CC(C)(C)N [compound I,hfum, compound I,hemi fumarate]
